The numbers were not newly measured in patent publication US20240041893A1, “An Extended-Release Pharmaceutical Formulation of Viloxazine And Process For Preparation Thereof” (Innovate Therapeutics LLC, priority 2023, published 2024), which cites them from elsewhere.

Molecules are shown by their SMILES.

The data set relates to norepinephrine reuptake.

For the compound `CCOc1ccccc1OC[C@@H]1CNCCO1` [(S)-(−)-isomer], the “pharmacological activity relative to the (R)-(+)-isomer” value is “five times”.
